pEC50: −log10 of the molar value.
Key:
Format in all cases: cell-based
[1] = tested on: Ovarian adenocarcinoma SKOV3 cells; experiment: SKOV3 cell death assay (MTT, 72 hours); settings: Homo sapiens, SK-OV-3, compound alone
Procedure: Ovarian adenocarcinoma SKOV3 cells were cultured as monolayers in McCoy's 5a medium (HyClone) supplemented with 2.2 g/L sodium bicarbonate (Gibco), 10% FBS (HyClone) and 1% penicillin/streptomycin (HyClone). Cells were seeded in 96 well plates at 5000 cells/well. After 24 hours in culture, cells were treated with compound. Cells were incubated in the presence of compound for 72 hours. Metabolic viability of remaining cells was assessed by MTT (thiazolyl blue tetrazolium bromide, Sigma) assay.
(§1) EC50 values (50% cell survival in the presence of compound as compared to untreated controls) were calculated from survival curves using BioAssay software (CambridgeSoft, HCT116 and SKOV3 SAR) and GraphPad Prism (Graph Pad Software Inc., Synoviocyte SAR).

[2] = tested on: Colorectal carcinoma HCT116 cells; experiment: HCT116 + ETR1 cell death assay (MTT, 72 hours); settings: with HGS ETR1 40 ng/ml
Procedure: Colorectal carcinoma HCT116 cells were cultured as monolayers in 96 well plates at a density of 2000 cells per well in McCoy's 5a medium (HyClone) supplemented with 2.2 g/L sodium bicarbonate (Gibco), 10% FBS (HyClone) and 1% penecillin/streptomycin (HyClone). 24 hours later, triplicate wells were treated with HGS ETR1 (40 ng/ml) in combination with compound. Cells were incubated in the presence of compound and HGS agonistic Trail receptor antibody, ETR1 (Mapatumamab, 40 ng/ml) for 72 hours. Metabolic viability of remaining cells was assessed by MTT (thiazolyl blue tetrazolium bromide, Sigma) assay.
as §1

[3] = tested on: Rheumatoid arthritis human fibroblast-like synoviocytes (HFLS-RA); experiment: Synoviocytes + Fas antibody cell survival assay (Cell Titer-Glo); settings: with 300 ng/ml anti-human CD95 (Fas) antibody CH-11, 72 hours, read-out: EC50 synoviocyctes + FAS
Procedure: Rheumatoid arthritis human fibroblast-like synoviocytes (HFLS-RA, Cell Applications Inc.) were seeded in 96-well plates at 3000 cells per well in complete synoviocyte growth medium (Cell Applications Inc.) one day prior to treatment. Triplicate wells were treated for 72 hours compound in combination with 300 ng/ml anti-human CD95 (Fas) antibody (clone CH-11, Beckman Coulter/Immunotech). Cell survival was measured by Cell Titer-Glo Luminescent Assay (Promega).
as §1

Row | SMILES | pEC50 [1] | pEC50 [2] | pEC50 [3]
1 | CN[C@@H](C)C(=O)N[C@H](C(=O)N1CCC[C@H]1CN(CCc1ccccc1)C(=O)CNC(=O)c1ccc(C(=O)NCC(=O)N(CCc2ccccc2)C[C@@H]2CCCN2C(=O)[C@@H](NC(=O)[C@H](C)NC)C2CCCCC2)cc1)C1CCCCC1 [Compound 1] | > 7.00 | > 7.00 | 
2 | CN[C@@H](C)C(=O)N[C@H](C(=O)N1CCC[C@H]1CN(CCc1ccccc1)C(=O)CNC(=O)c1ccc2cc(C(=O)NCC(=O)N(CCc3ccccc3)C[C@@H]3CCCN3C(=O)[C@@H](NC(=O)[C@H](C)NC)C3CCCCC3)ccc2c1)C1CCCCC1 [Compound 3] | > 7.00 | > 7.00 | 
3 | CN[C@@H](C)C(=O)N[C@H](C(=O)N1CCC[C@H]1CN(CCc1ccccc1)C(=O)CNC(=O)C1CCC(C(=O)NCC(=O)N(CCc2ccccc2)C[C@@H]2CCCN2C(=O)[C@@H](NC(=O)[C@H](C)NC)C2CCCCC2)CC1)C1CCCCC1 (stereo partly shown) [Compound 4] | > 7.00 | > 7.00 | 
4 | CN[C@@H](C)C(=O)N[C@H](C(=O)N1CCC[C@H]1CN(CCc1ccc(F)cc1)C(=O)c1ccc(C(=O)N(CCc2ccc(F)cc2)C[C@@H]2CCCN2C(=O)[C@@H](NC(=O)[C@H](C)NC)C2CCCCC2)cc1)C1CCCCC1 [Compound 5] | > 7.00 | > 7.00 | 
5 | CN[C@@H](C)C(=O)N[C@H](C(=O)N1CCC[C@H]1CN(CCc1ccc(F)cc1)C(=O)CNC(=O)c1ccc(C(=O)NCC(=O)N(CCc2ccc(F)cc2)C[C@@H]2CCCN2C(=O)[C@@H](NC(=O)[C@H](C)NC)C2CCCCC2)cc1)C1CCCCC1 [Compound 7] | > 7.00 | > 7.00 | 
6 | CN[C@@H](C)C(=O)N[C@H](C(=O)N1CCC[C@H]1CN(CCc1ccc(F)cc1)C(=O)CNC(=O)c1ccc2cc(C(=O)NCC(=O)N(CCc3ccc(F)cc3)C[C@@H]3CCCN3C(=O)[C@@H](NC(=O)[C@H](C)NC)C3CCCCC3)ccc2c1)C1CCCCC1 [Compound 9] | > 7.00 | > 7.00 | 
7 | CN[C@@H](C)C(=O)N[C@H](C(=O)N1CCC[C@H]1CN(CCc1ccc(F)cc1)C(=O)CNC(=O)C1CCC(C(=O)NCC(=O)N(CCc2ccc(F)cc2)C[C@@H]2CCCN2C(=O)[C@@H](NC(=O)[C@H](C)NC)C2CCCCC2)CC1)C1CCCCC1 (stereo partly shown) [Compound 10] |  | > 7.00 | 
8 | CN[C@@H](C)C(=O)N[C@H](C(=O)N1CCC[C@H]1CN(CCc1ccc(F)cc1)C(=O)c1ccc2cc(C(=O)N(CCc3ccc(F)cc3)C[C@@H]3CCCN3C(=O)[C@@H](NC(=O)[C@H](C)NC)C3CCCCC3)ccc2c1)C1CCCCC1 [Compound 11] |  | > 7.00 | > 7.00
9 | CN[C@@H](C)C(=O)N[C@H](C(=O)N1CCC[C@H]1CN(CCc1ccccc1)C(=O)c1ccc2cc(C(=O)N(CCc3ccccc3)C[C@@H]3CCCN3C(=O)[C@@H](NC(=O)[C@H](C)NC)C3CCCCC3)ccc2c1)C1CCCCC1 [Compound 12] |  | > 7.00 | 
10 | CN[C@@H](C)C(=O)N[C@H](C(=O)N1CCC[C@H]1CN(CCc1ccc(OC)cc1)C(=O)c1ccc2cc(C(=O)N(CCc3ccc(OC)cc3)C[C@@H]3CCCN3C(=O)[C@@H](NC(=O)[C@H](C)NC)C3CCCCC3)ccc2c1)C1CCCCC1 [Compound 13] |  | < 7.00 | 
11 | CN[C@@H](C)C(=O)N[C@H](C(=O)N1CCC[C@H]1CN(CCc1ccc(OC)cc1)C(=O)CNC(=O)c1ccc(-c2ccc(C(=O)NCC(=O)N(CCc3ccc(OC)cc3)C[C@@H]3CCCN3C(=O)[C@@H](NC(=O)[C@H](C)NC)C3CCCCC3)cc2)cc1)C1CCCCC1 [Compound 14] |  | < 7.00 | 
12 | CN[C@@H](C)C(=O)N[C@H](C(=O)N1CCC[C@H]1CN(C(=O)CNC(=O)c1ccc(-c2ccc(C(=O)NCC(=O)N(C[C@@H]3CCCN3C(=O)[C@@H](NC(=O)[C@H](C)NC)C3CCCCC3)C3Cc4ccccc4C3)cc2)cc1)C1Cc2ccccc2C1)C1CCCCC1 [Compound 15] |  | > 7.00 | 
13 | CN[C@@H](C)C(=O)N[C@H](C(=O)N1CCC[C@H]1CN(CCc1ccccc1)C(=O)c1ccc2cc(C(=O)N(CCc3ccccc3)C[C@@H]3CCCN3C(=O)[C@@H](NC(=O)[C@H](C)NC)C3CCCC3)ccc2c1)C1CCCC1 [Compound 16] | > 7.00 | > 7.00 | 
14 | CN[C@@H](C)C(=O)N[C@H](C(=O)N1CCC[C@H]1CN(CCc1ccccc1)C(=O)c1ccc2cc(C(=O)N(CCc3ccccc3)C[C@@H]3CCCN3C(=O)[C@@H](NC(=O)[C@H](C)NC)c3ccccc3)ccc2c1)c1ccccc1 [Compound 24] |  | > 7.00 | 
15 | CN[C@@H](C)C(=O)N[C@H](C(=O)N1CCC[C@H]1CN(CCc1ccccc1)C(=O)c1ccc(-c2ccc(C(=O)N(CCc3ccccc3)C[C@@H]3CCCN3C(=O)[C@@H](NC(=O)[C@H](C)NC)c3ccccc3)cc2)cc1)c1ccccc1 [Compound 25] |  | > 7.00 | 
16 | CN[C@@H](C)C(=O)N[C@H](C(=O)N1CCC[C@H]1CN(CCc1ccccc1)C(=O)c1ccc2cc(C(=O)N(CCc3ccccc3)C[C@@H]3CCCN3C(=O)[C@@H](NC(=O)[C@H](C)NC)C3CCOCC3)ccc2c1)C1CCOCC1 [Compound 26] |  | > 7.00 | 
17 | CN[C@@H](C)C(=O)N[C@H](C(=O)N1CCC[C@H]1CN(CCc1ccccc1)C(=O)c1ccc(-c2ccc(C(=O)N(CCc3ccccc3)C[C@@H]3CCCN3C(=O)[C@@H](NC(=O)[C@H](C)NC)C3CCOCC3)cc2)cc1)C1CCOCC1 [Compound 27] |  | > 7.00 | 
18 | CN[C@@H](C)C(=O)N[C@H](C(=O)N1CCC[C@H]1CN(CCc1ccc(F)cc1)S(=O)(=O)c1ccc2cc(S(=O)(=O)N(CCc3ccc(F)cc3)C[C@@H]3CCCN3C(=O)[C@@H](NC(=O)[C@H](C)NC)C3CCCCC3)ccc2c1)C1CCCCC1 [Compound 28] |  | > 7.00 | 
19 | CN[C@@H](C)C(=O)N[C@H](C(=O)N1CCC[C@H]1CN(CCc1ccccc1)C(=O)CNC(=O)c1ccc(-c2ccc(C(=O)NCC(=O)N(CCc3ccccc3)C[C@@H]3CCCN3C(=O)[C@@H](NC(=O)[C@H](C)NC)C3CCCCC3)cn2)nc1)C1CCCCC1 [Compound 29] |  | > 7.00 | 
20 | CN[C@@H](C)C(=O)N[C@H](C(=O)N1CCC[C@H]1CN(CCc1ccccc1)C(=O)c1ccc(-c2ccc(C(=O)N(CCc3ccccc3)C[C@@H]3CCCN3C(=O)[C@@H](NC(=O)[C@H](C)NC)C3CCCCC3)cn2)nc1)C1CCCCC1 [Compound 30] |  | > 7.00 | 
21 | CN[C@@H](C)C(=O)N[C@H](C(=O)N1CCC[C@H]1CN(CCc1ccccc1)C(=O)[C@@H](C)NC(=O)c1ccc(-c2ccc(C(=O)N[C@H](C)C(=O)N(CCc3ccccc3)C[C@@H]3CCCN3C(=O)[C@@H](NC(=O)[C@H](C)NC)C3CCCCC3)cc2)cc1)C1CCCCC1 [Compound 31] |  | > 7.00 | 
22 | CN[C@@H](C)C(=O)N[C@H](C(=O)N1CCC[C@H]1CN(CCc1ccccc1)C(=O)CN(C)C(=O)c1ccc(-c2ccc(C(=O)N(C)CC(=O)N(CCc3ccccc3)C[C@@H]3CCCN3C(=O)[C@@H](NC(=O)[C@H](C)NC)C3CCCCC3)cc2)cc1)C1CCCCC1 [Compound 32] |  | > 7.00 | 
23 | CN[C@@H](C)C(=O)N[C@H](C(=O)N1CCC[C@H]1CN(CCc1ccccc1)C(=O)[C@H](C)NC(=O)c1ccc(-c2ccc(C(=O)N[C@@H](C)C(=O)N(CCc3ccccc3)C[C@@H]3CCCN3C(=O)[C@@H](NC(=O)[C@H](C)NC)C3CCCCC3)cc2)cc1)C1CCCCC1 [Compound 33] |  | > 7.00 | 
24 | CN[C@@H](C)C(=O)N[C@H](C(=O)N1CCC[C@H]1CN(CCc1ccccc1)C(=O)c1csc(-c2ccc(-c3nc(C(=O)N(CCc4ccccc4)C[C@@H]4CCCN4C(=O)[C@@H](NC(=O)[C@H](C)NC)C4CCCCC4)cs3)cc2)n1)C1CCCCC1 [Compound 34] |  | > 7.00 | 
25 | CN[C@@H](C)C(=O)N[C@H](C(=O)N1CCC[C@H]1CN(CCc1ccccc1)C(=O)c1csc(-c2ccc(-c3ccc(-c4nc(C(=O)N(CCc5ccccc5)C[C@@H]5CCCN5C(=O)[C@@H](NC(=O)[C@H](C)NC)C5CCCCC5)cs4)cc3)cc2)n1)C1CCCCC1 [Compound 35] |  | > 7.00 | 
26 | CN[C@H](C(=O)N[C@H](C(=O)N1CCC[C@H]1CN(CCc1ccccc1)C(=O)c1ccc(-c2ccc(C(=O)N(CCc3ccccc3)C[C@@H]3CCCN3C(=O)[C@@H](NC(=O)[C@@H](NC)C3CC3)C3CCCCC3)cc2)cc1)C1CCCCC1)C1CC1 [Compound 36] |  | > 7.00 | 
27 | CCN[C@@H](C)C(=O)N[C@H](C(=O)N1CCC[C@H]1CN(CCc1ccccc1)C(=O)c1ccc(-c2ccc(C(=O)N(CCc3ccccc3)C[C@@H]3CCCN3C(=O)[C@@H](NC(=O)[C@H](C)NCC)C3CCCCC3)cc2)cc1)C1CCCCC1 [Compound 37] |  | > 7.00 | 
28 | CCCN[C@@H](C)C(=O)N[C@H](C(=O)N1CCC[C@H]1CN(CCc1ccccc1)C(=O)c1ccc(-c2ccc(C(=O)N(CCc3ccccc3)C[C@@H]3CCCN3C(=O)[C@@H](NC(=O)[C@H](C)NCCC)C3CCCCC3)cc2)cc1)C1CCCCC1 [Compound 38] |  | > 7.00 | 
29 | CC[C@H](NC)C(=O)N[C@H](C(=O)N1CCC[C@H]1CN(CCc1ccccc1)C(=O)c1ccc(-c2ccc(C(=O)N(CCc3ccccc3)C[C@@H]3CCCN3C(=O)[C@@H](NC(=O)[C@H](CC)NC)C3CCCCC3)cc2)cc1)C1CCCCC1 [Compound 39] |  | > 7.00 | 
